Results taken from patent publication US5929236A, “2-substituted morpholine and thiomorpholine derivatives as GABA-B antagonists” (Schering Corporation, priority 1995, dated 1999).

What was measured:
[1] = test system: seizure in rats induced by PTZ; test: Prevention of seizure in rats induced by PTZ; type: in vivo, rat; settings: PTZ model
Procedure: Animal Models for Absence Seizures
A. Snead, Eur. J. Pharmacol., 213, 343-349 (1992), teaches a pharmacological model for testing the effectiveness of GABAB antagonists in preventing seizures induced by intra-peritoneal (ip) administration of either γ-butyrolactone (GBL) or pentylenetetrazole (PTZ) to rats. The animal is treated with the test compound, then monitored after being subjected to a dose of either GBL or PTZ sufficient to induce seizures.

[2] = molecular target: prejunctional GABAB receptors (Cavia porcellus, UniProt A0A286X9P6); test: In Vitro Assay (guinea pig trachea, reversal of baclofen inhibition of EFS-induced contractions); type: cell-based, guinea pig (male Hartley); settings: 30 μmol/L baclofen
Procedure: Male Hartley guinea pigs (450-650 g) are sacrificed by stunning and the trachea removed proximal to the carina and cut into 5 mm segments. The segments are attached to isometric force displacement transducers (Model FT03: Grass Instruments) and suspended in 15 mL organ baths filled with low Ca^2+ (0.6 mmol/L) Tyrode's buffer solution (pH 7.4) supplemented with 5.6 mmol/L glucose, 30 μmol/L choline and 2 μmol/L indomethacin. The solution is bubbled with a mixture of 95% O2 +5% CO2 and maintained at 37° C. The tracheal segments are allowed to equilibrate for 90 minutes under a resting tension of 0.5 g.
Platinum electrodes are placed on either side of the trachea and electrical field stimulation (EFS) (20 V, 8 Hz, 0.5 ms pulse for 5 s) was generated each minute from an electrical stimulator (Model S-88: Grass Instruments) and delivered to the electrodes through a stimulus distributor (Buxco Electronics). The stimulation parameters are chosen as appropriate for producing cholinergic contractions of the trachea that are sensitive to the inhibitory effects of compounds acting at prejunctional GABAB receptors. Contractile responses were recorded on a polygraph (Harvard Apparatus). The compound to be tested is added to the bath 10 min. before addition of 30 μmol/L baclofen. The effect of baclofen treatment in the absence or in the presence of the compound to be tested is expressed as a percent inhibition of EFS-induced contractions.

Sequence of prejunctional GABAB receptors (A0A286X9P6 30-844): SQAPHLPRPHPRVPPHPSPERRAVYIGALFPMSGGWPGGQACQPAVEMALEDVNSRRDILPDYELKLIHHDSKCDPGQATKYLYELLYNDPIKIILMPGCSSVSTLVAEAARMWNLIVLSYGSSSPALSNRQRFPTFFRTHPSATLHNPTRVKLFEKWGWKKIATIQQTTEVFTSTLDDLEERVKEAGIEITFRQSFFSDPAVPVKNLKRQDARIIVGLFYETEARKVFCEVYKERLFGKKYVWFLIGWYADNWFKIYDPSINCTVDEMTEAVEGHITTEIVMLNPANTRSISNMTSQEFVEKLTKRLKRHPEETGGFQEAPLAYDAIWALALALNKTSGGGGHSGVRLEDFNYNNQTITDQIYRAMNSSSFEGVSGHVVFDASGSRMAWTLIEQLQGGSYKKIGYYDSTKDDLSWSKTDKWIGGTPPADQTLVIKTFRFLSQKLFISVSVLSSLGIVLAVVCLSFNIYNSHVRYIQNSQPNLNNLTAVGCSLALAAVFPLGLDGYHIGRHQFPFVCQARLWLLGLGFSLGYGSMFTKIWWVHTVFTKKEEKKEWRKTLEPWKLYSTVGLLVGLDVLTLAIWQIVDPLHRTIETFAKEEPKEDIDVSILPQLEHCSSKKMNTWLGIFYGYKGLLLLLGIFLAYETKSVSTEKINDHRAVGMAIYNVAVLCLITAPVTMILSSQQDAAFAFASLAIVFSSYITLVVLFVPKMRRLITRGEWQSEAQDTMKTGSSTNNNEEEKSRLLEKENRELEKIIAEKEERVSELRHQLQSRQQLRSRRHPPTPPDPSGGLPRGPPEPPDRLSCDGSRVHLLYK
Sequence of prejunctional GABAB receptors (H0V741 1-820 partner): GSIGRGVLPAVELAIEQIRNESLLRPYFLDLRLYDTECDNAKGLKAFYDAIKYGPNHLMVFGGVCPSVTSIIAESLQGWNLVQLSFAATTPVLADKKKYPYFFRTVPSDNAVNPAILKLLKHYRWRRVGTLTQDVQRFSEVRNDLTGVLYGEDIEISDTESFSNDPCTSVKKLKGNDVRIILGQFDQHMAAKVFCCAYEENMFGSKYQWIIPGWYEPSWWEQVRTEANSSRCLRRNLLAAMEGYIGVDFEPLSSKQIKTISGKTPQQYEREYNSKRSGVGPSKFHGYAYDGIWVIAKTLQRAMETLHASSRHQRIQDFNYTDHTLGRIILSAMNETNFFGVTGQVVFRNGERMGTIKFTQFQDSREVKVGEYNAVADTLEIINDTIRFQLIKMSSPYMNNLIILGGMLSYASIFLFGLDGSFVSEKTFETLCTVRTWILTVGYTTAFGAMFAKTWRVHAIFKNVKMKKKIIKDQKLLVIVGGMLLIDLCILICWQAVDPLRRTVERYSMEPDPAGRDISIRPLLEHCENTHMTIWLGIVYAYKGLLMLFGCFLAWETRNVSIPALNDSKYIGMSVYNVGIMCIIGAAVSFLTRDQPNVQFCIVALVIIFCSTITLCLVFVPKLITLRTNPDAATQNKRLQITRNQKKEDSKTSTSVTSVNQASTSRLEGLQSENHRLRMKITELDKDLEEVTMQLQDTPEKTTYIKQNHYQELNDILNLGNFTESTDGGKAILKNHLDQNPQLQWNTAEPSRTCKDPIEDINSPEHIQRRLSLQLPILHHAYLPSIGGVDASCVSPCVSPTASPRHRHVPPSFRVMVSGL

CC1(C)COC(CC(=O)O)CN1 (single isomer, unassigned) [Example 6A]
SWD duration ([1]; 0.18 mg/kg, 20 min): 250 s | SWD duration ([1]; 0.18 mg/kg, 40 min): 235 s | SWD duration ([1]; 0.18 mg/kg, 60 min): 140 s | SWD duration ([1]; 0.18 mg/kg, 80 min): 60 s | SWD duration ([1]; 0.18 mg/kg, 100 min): 15 s | SWD duration ([1]; 0.18 mg/kg, 120 min): 0 s | SWD duration ([1]; 0.375 mg/kg, 20 min): 150 s | SWD duration ([1]; 0.375 mg/kg, 40 min): 140 s | SWD duration ([1]; 0.375 mg/kg, 60 min): 55 s | SWD duration ([1]; 0.375 mg/kg, 80 min): 25 s | SWD duration ([1]; 0.375 mg/kg, 100 min): 0 s | SWD duration ([1]; 0.375 mg/kg, 120 min): 0 s | SWD duration ([1]; 0.75 mg/kg, 20 min): 90 s | SWD duration ([1]; 0.75 mg/kg, 40 min): 70 s | SWD duration ([1]; 0.75 mg/kg, 60 min): 45 s | SWD duration ([1]; 0.75 mg/kg, 80 min): 0 s | SWD duration ([1]; 0.75 mg/kg, 100 min): 0 s | SWD duration ([1]; 0.75 mg/kg, 120 min): 0 s | SWD duration ([1]; 1.5 mg/kg, 20 min): 0 s | SWD duration ([1]; 1.5 mg/kg, 40 min): 0 s | SWD duration ([1]; 1.5 mg/kg, 60 min): 0 s | SWD duration ([1]; 1.5 mg/kg, 80 min): 0 s | SWD duration ([1]; 1.5 mg/kg, 100 min): 0 s | SWD duration ([1]; 1.5 mg/kg, 120 min): 0 s | inhibition at 30 µM ([2]; 30 μM): 90% | IC30 ([2]; guinea pig trachea): 1100 nM | In Vitro % inhibition ([2]; 100 μM): 94%
